Molecules are shown by their SMILES. Bounds are passed on as bounds.

Experiment [1] deals with CEM-SS. The experiment is described as follows: Tested for the therapeutic index against CEM-SS cells of HIV-1 (IIIb). Format: functional, Homo sapiens.
Experiment [2] deals with CEM-SS. Briefly: Tested for the therapeutic index against CEM-SS cells of HIV-1 (RF). The experiment is classed as functional, Homo sapiens.
The test system of experiment [3] is CEM-SS. Briefly: Tested for the therapeutic index against CEM-SS cells of HIV-2 (NIH-D2). The experiment is classed as functional, Homo sapiens.
Experiment [4] relates to CEM-SS. Briefly: Tested for the antiviral activity against CEM-SS cells infected with HIV-2 (NIH-D2). The experiment is classed as functional, cell-based. The note with it: Homo sapiens.
The test system of experiment [5] is CEM-SS. Briefly: Tested for the inhibitory activity against CEM-SS cells. The note with it: Homo sapiens. Format: functional, cell-based.
Experiment [6] concerns CEM-SS. Briefly: Tested for the antiviral activity against CEM-SS cells infected with HIV-1 (RF); value ranges from 2-15. The note with it: Homo sapiens. The experiment is classed as functional, cell-based.
Experiment [7] concerns MT4. Briefly: Tested for the antiviral activity against MT-4 cells infected with HIV (IIIb) strain resistant to non-nucleoside reverse transcriptase inhibitors. The note with it: Homo sapiens. Format: functional, cell-based.
Experiment [8] concerns MT4. The experiment is described as follows: Tested for the inhibitory activity against MT-4 cells. Format: functional, cell-based. The conditions noted are these: Homo sapiens.
Experiment [9] relates to MT2. The experiment is described as follows: Tested for the therapeutic index against MT-2 cells of AZT resistant strain of HIV-1 (A012). Format: functional, Homo sapiens.
Experiment [10] relates to MT2. The experiment is described as follows: Tested for the therapeutic index against MT-2 cells of AZT sensitive strain of HIV-1 (A012). The experiment is classed as functional, Homo sapiens.
Experiment [11] relates to MT2. Briefly: Tested for the antiviral activity against MT-2 cells infected with AZT resistant strain of HIV-1 (A012). Format: functional, cell-based. The note with it: Homo sapiens.
The test system of experiment [12] is MT2. The experiment is described as follows: Tested for the antiviral activity against MT-2 cells infected with AZT sensitive strain of HIV-1 (A012). Format: functional, cell-based. The note with it: Homo sapiens.
The subject of experiment [13] is MT2. The experiment is described as follows: Tested for the inhibitory activity against MT-2 cells. The experiment is classed as functional, cell-based. The conditions noted are these: Homo sapiens.
The test system of experiment [14] is MT4. Briefly: Tested for the therapeutic index against MT-4 cells of HIV-1 (IIIb). Format: functional, Homo sapiens.
Experiment [15] can be described thus: Tested for the antiviral activity against Sc-1 cells infected with rauscher murine leukemia virus (R-Mul V) by plaque assay in mouse. Format: functional, cell-based.
The nature of experiment [16]: Tested for the antiviral activity of production of viral antigen (p30) against Sc-1 cells of rauscher murine leukemia virus (R-Mul V). The experiment is classed as functional, cell-based. The note with it: Mus musculus.
A short description of experiment [17]: Tested for the inhibitory activity of production of viral antigen (p30) against Sc-1 cells of rauscher murine leukemia virus (R-Mul V). The experiment is classed as functional, cell-based. The conditions noted are these: Mus musculus.
Experiment [18] can be described thus: Tested for the therapeutic index against Sc-1 cells of rauscher murine leukemia virus (R-Mul V) by plaque assay in mouse. Format: functional.
Experiment [19] can be described thus: Tested for the therapeutic index of production of viral antigen (p30) against Sc-1 cells of rauscher murine leukemia virus (R-Mul V). Format: functional, Mus musculus.
Experiment [20] is described as follows: Tested for the inhibitory activity against Sc-1 cells by plaque assay in mouse. Format: functional, cell-based.

With `CC(C)CCCC(C)[C@H]1CC[C@H]2[C@@H]3CCC4C[C@@H](CCC=C(c5cc(Cl)c(O)c(C(=O)O)c5)c5cc(Cl)c(O)c(C(=O)O)c5)CC[C@]4(C)[C@H]3CC[C@]12C` (stereo not given in full), the TI50 in the experiment on CEM-SS [1] is on record as more than 100; in the experiment on CEM-SS [2] it was more than 20; in the experiment with CEM-SS [3], more than 60; in the experiment with MT2 [9], 20; in the experiment on MT2 [10], 25; in the experiment on MT4 [14], more than 15. The TI50 is more than 8 in experiment [18] and more than 4 in experiment [19]. The EC50 turned out to be 5 µM with CEM-SS [4]; 2000 nM in the experiment with CEM-SS [6]; 20 µM with MT4 [7]; 10 µM in the experiment on MT2 [11]; 8 µM in the experiment on MT2 [12]; 4 µM in experiment [15]. In experiment [16], the EC50 was determined as 7 µM. Further, the IC50 with CEM-SS [5] was more than 300 µM; in the experiment on MT4 [8], more than 300 µM; in the experiment on MT2 [13], 200 µM; in experiment [17], more than 32 µM; in experiment [20] it was more than 32 µM.

The values are drawn from ChEMBL document CHEMBL1150978, “Design and synthesis of cosalane, a novel anti-HIV agent” (Bioorg Med Chem Lett, 1993).
